Experimental data published in patent publication US20260097022A1, “COMPOUNDS AND USES THEREOF” (Integrated Biosciences, Inc., priority 2023, published 2026).

Tested on: etoposide-treated IMR-90 cells
Experiment: Etoposide-induced senescence model, resazurin cell viability (screen and dose-response)
Type: cell-based, human
Settings: for Therapeutic Index (TI): etoposide-induced senescence model, ratio of IC50 values between etoposide- and DMSO-treated IMR-90 fibroblasts; for senolytic activity in screen: 3 days
Description: Cell culture. Human lung fibroblast (IMR-90) cells were obtained from ATCC (CCL-186) and passaged less than 10 times (less than 30 population doublings) for all experiments described in this example, with the exception of high-passage cells used in the model of replicative senescence (see the section on Replicative senescence below). Cells were cultured in growth media comprising Eagle's Minimum Essential Medium (EMEM: ATCC 30-2003) supplemented with 10% fetal bovine serum (FBS: Thermo Fisher 16140071) and 1% penicillin-streptomycin (Thermo Fisher 15070063). Cells were incubated in a humidity-controlled incubator at 37° C., with 5% CO2. Cells were detached using trypsin-EDTA (0.05%; Gibco 25300120).
Etoposide-induced senescence. IMR-90 cells were cultured as described above. At between 30 to 50% confluence, the media was replaced with complete growth media containing vehicle (0.5% dimethyl sulfoxide: DMSO, MilliporeSigma D5879) or complete growth media containing 50 μM etoposide (prepared as a 1:200 dilution of a 10 mM stock solution in DMSO; etoposide, MilliporeSigma E1383). Cells were treated for 2 days, after which the media was replaced with fresh growth media and cells were allowed to recover for 4 days. Cells were then plated as described below.
Chemical screening. For all screening experiments. 99 μL of cells were plated into each well of a 96-well clear flat-bottom, black polystyrene tissue-culture-treated plate (Corning 3904) at a density of ˜10+ cells/well. Plates were incubated overnight for adhesion. The day after plating. 1 μL of each compound, prepared as either a 1 mM stock solution in DMSO (10 μM final concentration screen) or 0.1 mM stock solution in DMSO (1 μM final concentration screen), was added to each well using an Agilent Bravo liquid handler. A built-in slow mixing step involving aspirating and dispensing was used to enhance distribution of the added compounds in solution. Cells were incubated for 3 days, after which resazurin (MilliporeSigma R^7017) was added to each well to a final concentration of 0.15 mM. After an additional 1 day of incubation, the fluorescence excitation/emission at 550/590 nm was read using a SpectraMaxR M3 plate reader and manufacturer software (SoftMax Pro R 6). Experiments were performed in biological duplicate.
Three-fold serial dilutions of compound were prepared in DMSO, then added to cell plates (final concentration of DMSO. 1%). Cell viability was then assayed as detailed above, and resazurin fluorescence values were linearly interpolated with respect to values from empty and positive control (non-treatment) wells. Experiments were performed in biological duplicate each on two independent occasions. When possible, chemical stocks from commercial suppliers were used: econazole nitrate (Cayman Chemical 20223), artenimol (Cayman Chemical 19846), and ABT-263 (Cayman Chemical 11500) were from Cayman Chemical, and dehydrodeguelin was aliquoted from the screening library.
Calculation of cellular viability values in dose-response curves. […] For each sample, the fluorescence intensity value was normalized by the mean of two untreated control values. Cellular viability values are therefore indicated as fractions of the cellular viability of untreated controls. Vehicle (1% DMSO) control values are included in each dose-response curve. Experiments were performed in biological duplicate each on two independent occasions.
Calculation of baseline cellular viability values. […] Additionally, baseline cellular viability values were calculated for untreated cells at the start of the experiment. Resazurin was added to a final concentration of 0.15 mM on the day of seeding (corresponding to day 0 in FIG. 7).

Compound | Therapeutic Index (TI) | further results
CCOc1ccc(NC(=O)CSc2nc3ccc(NC(=O)c4cccc(C)c4)cc3s2)cc1 [compound 2] | +++ (compounds with a TI of >5 were labeled as +++) | 
CCOc1ccc(C(=O)Nc2ccc3nc(SCC(=O)N(C)c4ccccc4)sc3c2)cc1 [compound 49] | ++ (compounds with a TI of 1 to 5 were labelled as ++) | 
O=C(CSc1nc2ccc(NC(=O)c3ccccc3Cl)cc2s1)Nc1ccccc1 [compound 96] | ++ (compounds with a TI of 1 to 5 were labelled as ++) | 
COc1cccc(C(=O)Nc2ccc3nc(SCC(=O)Nc4ccccc4C)sc3c2)c1 [compound 165] | + (Compounds with a TI of <1 were labelled as +) | 
COC(=O)c1ccccc1NC(=O)CSc1nc2ccc(NC(=O)c3ccccc3C)cc2s1 [compound 67] | ++ (compounds with a TI of 1 to 5 were labelled as ++) | 
Cc1ccc(NC(=O)CSc2nc3ccc(NC(=O)c4ccccc4F)cc3s2)cc1Cl [compound 143] | + (Compounds with a TI of <1 were labelled as +) | 
Cc1noc(NS(=O)(=O)c2ccc(N)cc2)c1C [sulfisoxazole, reference compound] |  | senolytic activity in screen (1 μM): active
Cc1ccc(Cl)cc1NC(=O)CSc1nc2ccc(NC(=O)c3ccccc3C)cc2s1 [compound 46] | ++ (compounds with a TI of 1 to 5 were labelled as ++) | 
COc1ccccc1C(=O)Nc1ccc2nc(SCC(=O)Nc3cc(C)cc(C)c3)sc2c1 [compound 147] | + (Compounds with a TI of <1 were labelled as +) | 
O=C(CSc1nc2ccc(NC(=O)c3ccccc3)cc2s1)Nc1ccc(F)cc1 [compound 140] | ++ (compounds with a TI of 1 to 5 were labelled as ++) | 
COc1ccccc1C(=O)Nc1ccc2nc(SCC(=O)Nc3ccccc3C)sc2c1 [compound 130] | ++ (compounds with a TI of 1 to 5 were labelled as ++) | 
Cc1cccc(NC(=O)CSc2nc3ccc(NC(=O)c4cccc(C)c4)cc3s2)c1 [compound 136] | ++ (compounds with a TI of 1 to 5 were labelled as ++) | 
COc1ccc(NC(=O)CSc2nc3ccc(NC(=O)c4cccc(Cl)c4)cc3s2)cc1 [compound 79] | ++ (compounds with a TI of 1 to 5 were labelled as ++) | 
CN(C(=O)CSc1nc2ccc(NC(=O)c3ccccc3)cc2s1)c1ccccc1 [compound 146] | + (Compounds with a TI of <1 were labelled as +) | 
COc1cccc(C(=O)Nc2ccc3nc(SCC(=O)Nc4ccc(C)cc4)sc3c2)c1 [compound 13] | +++ (compounds with a TI of >5 were labeled as +++) | 
Cc1cc(C)cc(NC(=O)CSc2nc3ccc(NC(=O)c4ccccc4C)cc3s2)c1 [compound 118] | ++ (compounds with a TI of 1 to 5 were labelled as ++) | 
Cc1ccc(Cl)cc1NC(=O)CSc1nc2ccc(NC(=O)c3ccc(F)cc3)cc2s1 [compound 61] | ++ (compounds with a TI of 1 to 5 were labelled as ++) | 
CCOc1ccc(NC(=O)CSc2nc3ccc(N4C(=O)c5ccccc5C4=O)cc3s2)cc1 [compound 25] | +++ (compounds with a TI of >5 were labeled as +++) | 
Cc1cc(C)c(NC(=O)C(C)Sc2nc3ccc(NC(=O)c4ccccc4)cc3s2)c(C)c1 (stereo not drawn) [compound 139] | ++ (compounds with a TI of 1 to 5 were labelled as ++) | 
CCCCOc1ccc(NC(=O)CSc2nc3ccc(NC(=O)c4cccc5ccccc45)cc3s2)cc1 [compound 54] | ++ (compounds with a TI of 1 to 5 were labelled as ++) | 
O=C(CSc1nc2ccc(NC(=O)c3ccccc3Cl)cc2s1)Nc1ccc(F)cc1 [compound 23] | +++ (compounds with a TI of >5 were labeled as +++) | 
CCCCOc1ccc(NC(=O)CSc2nc3ccc(NC(=O)c4ccc(C(C)(C)C)cc4)cc3s2)cc1 [compound 9] | +++ (compounds with a TI of >5 were labeled as +++) | 
Cc1ccc(C(=O)Nc2ccc3nc(SCC(=O)Nc4ccccc4)sc3c2)cc1 [compound 36] | ++ (compounds with a TI of 1 to 5 were labelled as ++) | 

Compound | Therapeutic Index (TI) | further results
Cc1cccc(C(=O)Nc2ccc3nc(SCC(=O)Nc4ccccc4C)sc3c2)c1 [compound 7] | +++ (compounds with a TI of >5 were labeled as +++) | 
COc1ccc(C(=O)Nc2ccc3nc(SCC(=O)Nc4cccc(C)c4)sc3c2)cc1 [compound 83] | ++ (compounds with a TI of 1 to 5 were labelled as ++) | 
COc1ccc(C(=O)Nc2ccc3nc(SCC(=O)Nc4cc(Cl)ccc4C)sc3c2)cc1 [compound 113] | ++ (compounds with a TI of 1 to 5 were labelled as ++) | 
COc1ccccc1NC(=O)CSc1nc2ccc(NC(=O)c3ccccc3OC)cc2s1 [compound 28] | +++ (compounds with a TI of >5 were labeled as +++) | 
CCc1cccc(CC)c1NC(=O)CSc1nc2ccc(NC(=O)c3cccc(C)c3)cc2s1 [compound 32] | ++ (compounds with a TI of 1 to 5 were labelled as ++) | 
CCOc1ccc(NC(=O)CSc2nc3ccc(NC(=O)c4ccccc4OC)cc3s2)cc1 [compound 40] | ++ (compounds with a TI of 1 to 5 were labelled as ++) | 
Cc1ccc(C(=O)Nc2ccc3nc(SCC(=O)N(C)c4ccccc4)sc3c2)cc1 [compound 81] | ++ (compounds with a TI of 1 to 5 were labelled as ++) | 
Cc1ccc(NC(=O)C(C)Sc2nc3ccc(NC(=O)c4ccc(Cl)cc4)cc3s2)cc1 (stereo not drawn) [compound 90] | ++ (compounds with a TI of 1 to 5 were labelled as ++) | 
Cc1ccc(NC(=O)C(C)Sc2nc3ccc(NC(=O)c4ccccc4F)cc3s2)cc1 (stereo not drawn) [compound 10] | +++ (compounds with a TI of >5 were labeled as +++) | 
COC(=O)c1ccc(NC(=O)CSc2nc3ccc(NC(=O)c4ccccc4F)cc3s2)cc1 [compound 105] | ++ (compounds with a TI of 1 to 5 were labelled as ++) | 
COc1ccc(C(=O)Nc2ccc3nc(SCC(=O)Nc4ccccc4Cl)sc3c2)cc1 [compound 63] | ++ (compounds with a TI of 1 to 5 were labelled as ++) | 
COc1ccc(NC(=O)CSc2nc3ccc(NC(=O)c4cccc(OC)c4)cc3s2)cc1 [compound 12] | +++ (compounds with a TI of >5 were labeled as +++) | 
COc1ccccc1C(=O)Nc1ccc2nc(SCC(=O)Nc3ccc(F)cc3)sc2c1 [compound 84] | ++ (compounds with a TI of 1 to 5 were labelled as ++) | 
CN(C)CC#Cc1ccc(OCCCc2sc(N3CCc4cccc(C(=O)Nc5nc6ccccc6s5)c4C3)nc2C(=O)O)c(F)c1 [A-1155463, reference compound] |  | senolytic activity in screen (10 μM, active: control viability >0.5, Snc/control ratio <0.7): active
CC(=O)c1ccc(NC(=O)CSc2nc3ccc(NC(=O)c4ccccc4)cc3s2)cc1 [compound 157] | + (Compounds with a TI of <1 were labelled as +) | 
CCOc1ccc(C(=O)Nc2ccc3nc(SCC(=O)Nc4cc(C)cc(C)c4)sc3c2)cc1 [compound 43] | ++ (compounds with a TI of 1 to 5 were labelled as ++) | 
CCCCOc1ccc(NC(=O)CSc2nc3ccc(NC(=O)c4ccccc4OC)cc3s2)cc1 [compound 109] | ++ (compounds with a TI of 1 to 5 were labelled as ++) | 
CCOc1ccc(C(=O)Nc2ccc3nc(SCC(=O)Nc4cccc(C)c4)sc3c2)cc1 [compound 80] | ++ (compounds with a TI of 1 to 5 were labelled as ++) | 
CCc1ccc(NC(=O)CSc2nc3ccc(NC(=O)c4ccccc4)cc3s2)cc1 [compound 134] | ++ (compounds with a TI of 1 to 5 were labelled as ++) | 
Cc1ccccc1C(=O)Nc1ccc2nc(SCC(=O)Nc3ccc(C(C)C)cc3)sc2c1 [compound 151] | + (Compounds with a TI of <1 were labelled as +) | 
COc1ccc(NC(=O)CSc2nc3ccc(NC(=O)c4cccc5ccccc45)cc3s2)cc1 [compound 108] | ++ (compounds with a TI of 1 to 5 were labelled as ++) | 
COc1ccc(C(=O)Nc2ccc3nc(SCC(=O)Nc4ccccc4)sc3c2)cc1OC [compound 5] | +++ (compounds with a TI of >5 were labeled as +++) | 
